The text below walks through data of patent publication US20120214784A1, “SPIROPIPERIDINE COMPOUNDS AS ORL-1 RECEPTOR ANTAGONISTS” (ELI LILLY AND COMPANY, priority 2009, published 2012).

The nature of series [1]: Rat hepatic microsomal glutathione trapping assay. Format: in vitro ADME. To be noted: hepatic microsomal homogenate, glutathione as nucleophile. An excerpt:
Assuming that reactive metabolites may play a role in clinical IDRs, minimizing the potential for oxidative bioactivation has been proposed as a means of improving the overall safety profile of compounds containing structural features associated with such reactivity. (see Baillie, Thomas A., Approaches to the Assessment of Stable and Chemically Reactive Drug Metabolites in Early Clinical Trials, Chemical Research in Toxicology, vol 22(2) 2009.) To this end, representative compounds of the present invention and related compounds are screened using a rat hepatic microsomal trapping assay, using glutathione as an endogenous nucleophile, to understand the potential for oxidative bioactivation of the thienyl moiety. […] Of the compounds tested, those wherein R^2a and R^2b are fluoro are found to not show glutathione conjugate formation.

Series [2] deals with T1, cloned human ORL1 receptors (Homo sapiens, UniProt P41146).
T1 construct: expressed in transfected cells; host or cells: CHO cells (membranes)
The experiment in a line: [3H]-OFQ/nociceptin receptor binding assay. Here is the method: (§1) Radioligand binding assays are commonly used to determine the affinity (Ki) or potency of a compound to bind to a particular receptor or target protein. A filtration-based [3H]-OFQ/nociceptin receptor binding assay is developed based on previous assay formats (Ardati A, Henningsen R A, Higelin J, Reinscheid R K, Civelli O, Monsma F J Jr. Mol. Pharmacol. 1997 May; 51(5):816-24.) with minor modifications. [3H]-OFQ/nociceptin binding assays are carried out in deep-well 96-well plates. [^3H]OFQ (final assay concentration 0.2 nM) competition studies are carried out with 5-10 μg of membrane protein (isolated from Chinese hamster ovary cells (CHO cells) expressing cloned human ORL1 receptors) in a final assay volume of 0.5 mL of buffer containing 20 mM HEPES, pH 7.4, 5 mM MgCl2, 1 mM EGTA, 100 mM NaCl, 0.1% bovine serum albumin. Samples are incubated for 60 min. at room temperature, which is found to be optimal for competition assays. The assays are terminated by filtration through glass fiber filters (Wallac filtermat A) [pretreated with 0.3% polyethylenimine (Sigma) for 1 hr] on a Tometc cell harvester, and the filters are washed three times with 5 mL of ice-cold 50 mM Tris.HCl, pH 7.4. Filtermats are then dried and imbedded with Meltilex scintillant A and the radioactivity counted in a Wallac Microbeta scintillation counter. Specific binding is determined by displacement with 100 nM unlabeled nociceptin. Curves are plotted as the percent of specific binding and IC50 values are determined using a sigmoidal dose response curve with variable slope. K, values are calculated from the IC50 by the equation of Cheng and Prusoff (Cheng, Y. C., and Prusoff, W. H., Biochem. Pharmacol. 22, 3099-3108 (1973)) where Ki=IC50×(1+D×Kd^−1)^−1. Similarly, Ki for the mu, kappa and delta opioids, serotonin, adrenergic, and muscarinic receptors may be determined using membranes expressing the desired receptor and appropriate corresponding radioligand competitor molecules.

Series [3] concerns the target T2, cloned human ORL1/nociceptin receptors (Homo sapiens, UniProt P41146).
T2 construct: expressed in transfected cells
Put plainly: Functional blockade of agonist-mediated G-protein activation, GTP-γ-[35S] binding. The series is classed as biochemical. The text has this: Agonist-mediated stimulation of G-protein coupled receptors results in the activation of membrane associated Gαβγ-protein heterotrimer complexes, and represents the first step in the transduction of extracellular signals to modification of intracellular pathways. The first step in activation of receptor-mediated activation of Gαβγ-proteins heterotrimer is the exchange of Gα subunit bound guanosine diphoshpate (GDP) for guanosine triphosphate (GTP). The binding of GTP to the Gα subunit causes dissociation of the heterotrimer subunits, Gβ and Gγ, resulting in the modulation of several intracellular signaling cascades. Measurement of receptor-mediated G-protein activation can be measured using the non-hydrolyzable radiolabeled analog of GTP, GTP-γ-[35S]. Utilizing this methodology, antagonist affinity (Kb) is measured in membranes expressing cloned human ORL1/nociceptin receptors using a GTP-γ-[35S] binding assay according to previously described protocols with minor modifications (DeLapp et al., J Pharmacol Exp Ther. 1999 May; 289(2):946-55; Ozaki et al., Eur J Pharmacol. 2000 Aug. 18; 402(1-2):45-53). Assays are conducted in a 200-μl volume with the following buffer composition: 100 mM NaCl, 20 mM HEPES, 5 mM MgCl2, 1 mM EDTA, 0.1% BSA, 3 μM GDP, 0.5 nM [^35S]GTPγS. ORL1 receptor membrane suspension is added at a concentration of 20 μg protein per well and receptor stimulation is achieved using 300 nM nociceptin/OFQ. Wheat germ agglutinin coated SPA beads (Amersham, Arlington Hts., Ill.) are added at 1 mg per well to detect membrane-bound [^35S]GTPγS. Plates are sealed and incubated for 2 hr. at room temperature. Plates are then placed at 4° C. overnight to allow the SPA beads to settle and then counted in a Wallac Microbeta. Specific [^35S]GTPγS binding is determined as the difference in CPM observed in the absence and presence of 10 μM unlabeled GTPγS. Data are plotted as the percent of specific [^35S]GTPγS bound. Curves are plotted as the percent of specific binding and IC50 values are determined using a sigmoidal dose response curve with variable slope. Antagonist affinity (Kb) is estimated according to DeLapp et al., 1999 using a modification of the equation of Cheng and Prusoff (1973) where Kb=IC50×(1+D×EC50^−1)^−1.
On the technique in general: GTPγS is a poorly hydrolysed GTP analogue; its binding reports G protein activation.

The target in series [4] is T3, nociceptin/ORL1 receptors (Rattus norvegicus, UniProt P35370).
T3 construct: rats are sacrificed by cervical dislocation and the hypothalamus is removed; from tissue; host or cells: rat hypothalamus (in vivo occupancy)
Put plainly: In vivo receptor occupancy (LC/MS/MS, RO Tracer) in hypothalamus. As to conditions: oral 3 mg/kg dose after 6 hr.

Series [5] concerns wild type and ORL knockout mice. The experiment in a line: Blockade of fasting-induced hyperphagia in mice. The series is classed as in vivo, mouse. To be noted: wild type mice, oral gavage 30 min. prior to food, food intake 1 hr. The text has this:
Blockade of fasting-induced hyperphagia in rats is an accepted model for hyperphagic eating disorders. […] Mice are individually housed a minimum of 3 days prior to the onset of testing to eliminate any effects of stress due to the change from group to individual housing. Three mice/genotype are randomly assigned to each treatment group on the test day. Pre-fast body weight measurements are taken, and food is then removed from cages overnight. Mice are fasted for approximately 15 hr. The next morning, the mice are given one of three doses of drug or vehicle via oral gavage 30 min. prior to gaining access to food. Drugs are dissolved in 20% Captisol dissolved in 25 mM phosphate buffer, pH 2.0. Measurements of body weight are taken immediately prior to drug treatment or 24 hr. after access to food is restored. […] Measurements of food intake are recorded 1 hr following access to food, as indicated, by weight of food remaining at 1 hr. It should be noted that food intake measured is during the light phase, a time during which mice are typically at rest and not normally eating. Following initial testing, mice are rested for 1 week with access to unlimited chow.

Another series deals with Delta Opioid (Homo sapiens, UniProt P41143). The experiment in a line: Radioligand binding selectivity. As to conditions: Delta Opioid; read-out: Ki. Here is the method: as §1
For another series, the target named is Kappa Opioid (Homo sapiens, UniProt P41145). The experiment in a line: Radioligand binding selectivity. As to conditions: Kappa Opioid; read-out: Ki. Here is the method:
as §1

The target in a further series is Mu Opioid (Homo sapiens, UniProt P35372). The experiment in a line: Radioligand binding selectivity. To be noted: Mu Opioid; read-out: Ki. The protocol: as §1
The target in series [6] is human ERG (hERG) K+ channel (Homo sapiens, UniProt Q12809). Put plainly: hERG channel [3H]astemizole binding assay. Here is the method:
Blockade of K^+-channel conductance in the heart is associated with cardiotoxicity in the form of QT-wave prolongation. The affinity (Ki) of the exemplified nociceptin receptor antagonists for the human ERG (hERG) K^+ channel is determined in HEK293 cells expressing cloned hERG using the hERG channel antagonist radioligand [3H]astemizole (2 nM final assay concentration) according to well known procedures (see for example Finlayson K, et al. (Eur J Pharmacol. 412(3):203-12, 2001) [3H]Astemizole binding assays are performed at the contract research company Cerep (Paris France) according to standard procedures.
On the technique in general: Block of hERG is tested as a sign of cardiac risk.

Series [7] concerns NIH-Swiss mice; 129S6 wild type and nociceptin/ORL1 receptor knockout mice. The experiment in a line: Forced-swim test in mice (mFST). The series is classed as in vivo, mouse. To be noted: mFST. An excerpt: Forced-Swim Test in Mice (mFST) mFST is an established in vivo assay for antidepressant activity (Li et al. J Pharmacol Exp Ther. 319(1):254-9, 2006.). […] The mFST was used to evaluate potential antidepressant-like activity of novel nociceptin/ORL1 antagonists according to previously published methods (Li et al. J Pharmacol Exp Ther. 319(1):254-9, 2006.). Briefly, male NIH-Swiss mice (Harlan Sprague-Dawley, Indianapolis, Ind.) weighing between 25-30 g are used. Group housed animals are removed from the vivarium to the testing area in their own cages and allowed to adapt to the new environment for at least 1 hour before testing. Alternatively, male 129S6 wild type and nociceptin/ORL1 receptor knockout mice were used to confirm dependence of the response to compound was nociceptin/ORL1 receptor dependent. All compounds are prepared in 20% Captisol, 25 mM phosphate buffer, pH 2.0 on the day of use. Mice are placed in a cylinder (diameter: 10 cm; height: 25 cm) filled with 6 cm of water (22-25° C.) for 6 min. The duration of immobility during the last 4 min. of the 6 min. period of the test was scored. A mouse is recorded as immobile when floating motionless or making only those movements necessary to keep its head above water.

T3 sequence (P35370 whole entry): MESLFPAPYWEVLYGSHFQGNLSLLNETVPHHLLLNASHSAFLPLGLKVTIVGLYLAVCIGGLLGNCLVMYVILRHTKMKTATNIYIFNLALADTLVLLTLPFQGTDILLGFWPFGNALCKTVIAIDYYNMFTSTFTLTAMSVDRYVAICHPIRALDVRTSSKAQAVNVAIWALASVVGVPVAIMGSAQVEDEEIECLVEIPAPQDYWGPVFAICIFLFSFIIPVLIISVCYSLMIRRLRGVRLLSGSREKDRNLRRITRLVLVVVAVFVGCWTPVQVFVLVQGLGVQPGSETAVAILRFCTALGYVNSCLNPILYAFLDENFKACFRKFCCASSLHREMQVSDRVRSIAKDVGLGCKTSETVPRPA
T1 sequence (P41146 whole entry): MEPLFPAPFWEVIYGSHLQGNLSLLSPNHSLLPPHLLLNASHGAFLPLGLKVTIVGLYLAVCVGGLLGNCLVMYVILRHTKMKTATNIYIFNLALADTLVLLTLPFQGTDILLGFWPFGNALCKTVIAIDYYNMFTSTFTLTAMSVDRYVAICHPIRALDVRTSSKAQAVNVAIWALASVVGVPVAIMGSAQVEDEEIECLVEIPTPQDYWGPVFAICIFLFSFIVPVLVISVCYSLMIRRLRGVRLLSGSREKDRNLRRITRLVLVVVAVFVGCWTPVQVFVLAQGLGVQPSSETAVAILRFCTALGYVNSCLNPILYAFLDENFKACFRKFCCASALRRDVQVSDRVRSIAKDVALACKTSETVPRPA
T2 sequence (P41146 whole entry): as above
Sequence of human ERG (hERG) K+ channel (Q12809 whole entry): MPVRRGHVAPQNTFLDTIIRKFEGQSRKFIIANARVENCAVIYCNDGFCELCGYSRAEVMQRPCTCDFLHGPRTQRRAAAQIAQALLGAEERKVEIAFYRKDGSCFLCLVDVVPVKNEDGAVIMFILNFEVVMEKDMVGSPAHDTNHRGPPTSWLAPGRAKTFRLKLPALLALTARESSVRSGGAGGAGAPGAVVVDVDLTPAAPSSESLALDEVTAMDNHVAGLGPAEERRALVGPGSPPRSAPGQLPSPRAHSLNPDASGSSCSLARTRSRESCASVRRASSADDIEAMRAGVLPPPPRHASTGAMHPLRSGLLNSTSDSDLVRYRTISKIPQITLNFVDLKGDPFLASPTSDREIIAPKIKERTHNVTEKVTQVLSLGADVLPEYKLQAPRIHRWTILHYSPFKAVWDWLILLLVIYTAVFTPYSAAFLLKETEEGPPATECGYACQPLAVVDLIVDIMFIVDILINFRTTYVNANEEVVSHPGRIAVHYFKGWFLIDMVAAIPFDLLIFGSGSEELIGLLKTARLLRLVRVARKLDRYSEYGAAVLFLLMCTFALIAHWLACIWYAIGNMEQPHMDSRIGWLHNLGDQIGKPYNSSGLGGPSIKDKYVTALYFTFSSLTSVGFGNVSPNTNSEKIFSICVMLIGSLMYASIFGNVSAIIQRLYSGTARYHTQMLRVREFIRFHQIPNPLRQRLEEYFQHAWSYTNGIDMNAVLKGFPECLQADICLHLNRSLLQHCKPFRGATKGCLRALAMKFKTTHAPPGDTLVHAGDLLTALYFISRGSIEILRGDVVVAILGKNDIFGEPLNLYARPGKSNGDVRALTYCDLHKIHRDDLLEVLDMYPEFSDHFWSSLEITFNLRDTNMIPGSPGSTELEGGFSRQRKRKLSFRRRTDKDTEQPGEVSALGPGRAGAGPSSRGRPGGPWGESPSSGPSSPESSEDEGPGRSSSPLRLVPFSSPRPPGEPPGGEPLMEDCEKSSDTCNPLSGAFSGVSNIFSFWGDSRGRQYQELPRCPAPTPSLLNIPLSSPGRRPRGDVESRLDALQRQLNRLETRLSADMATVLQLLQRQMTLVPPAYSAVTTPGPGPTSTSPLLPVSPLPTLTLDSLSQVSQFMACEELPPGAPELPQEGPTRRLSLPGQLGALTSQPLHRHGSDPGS
Sequence of Mu Opioid (P35372 whole entry): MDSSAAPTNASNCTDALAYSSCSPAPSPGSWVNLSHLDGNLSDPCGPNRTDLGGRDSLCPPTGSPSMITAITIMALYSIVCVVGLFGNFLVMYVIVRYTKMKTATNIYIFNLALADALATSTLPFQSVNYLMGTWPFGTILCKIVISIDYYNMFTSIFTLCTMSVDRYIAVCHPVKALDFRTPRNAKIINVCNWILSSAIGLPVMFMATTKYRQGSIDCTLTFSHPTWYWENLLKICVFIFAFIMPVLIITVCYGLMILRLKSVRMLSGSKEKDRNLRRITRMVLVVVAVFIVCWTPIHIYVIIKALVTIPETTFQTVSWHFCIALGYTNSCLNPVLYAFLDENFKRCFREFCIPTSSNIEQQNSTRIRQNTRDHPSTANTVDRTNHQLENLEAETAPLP
Sequence of Delta Opioid (P41143 whole entry): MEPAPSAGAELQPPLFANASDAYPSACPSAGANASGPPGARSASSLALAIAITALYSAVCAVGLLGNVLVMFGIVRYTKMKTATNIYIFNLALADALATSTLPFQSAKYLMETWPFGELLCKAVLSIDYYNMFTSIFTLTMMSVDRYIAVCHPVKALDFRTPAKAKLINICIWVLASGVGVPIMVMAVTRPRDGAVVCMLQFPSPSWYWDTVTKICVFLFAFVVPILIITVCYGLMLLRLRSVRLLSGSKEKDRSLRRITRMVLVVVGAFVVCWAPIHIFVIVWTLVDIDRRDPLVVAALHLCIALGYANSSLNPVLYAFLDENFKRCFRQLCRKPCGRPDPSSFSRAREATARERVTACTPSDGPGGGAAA
Sequence of Kappa Opioid (P41145 whole entry): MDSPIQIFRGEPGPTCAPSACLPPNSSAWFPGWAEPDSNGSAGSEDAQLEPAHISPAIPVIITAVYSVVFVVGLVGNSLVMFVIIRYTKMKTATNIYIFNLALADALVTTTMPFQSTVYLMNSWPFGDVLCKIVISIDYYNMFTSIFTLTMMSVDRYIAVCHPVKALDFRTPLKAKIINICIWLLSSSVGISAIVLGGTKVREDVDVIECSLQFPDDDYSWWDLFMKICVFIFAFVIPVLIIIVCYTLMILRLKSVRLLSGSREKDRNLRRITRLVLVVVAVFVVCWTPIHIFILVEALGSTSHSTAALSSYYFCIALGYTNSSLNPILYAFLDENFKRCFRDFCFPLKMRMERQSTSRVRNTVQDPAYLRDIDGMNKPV

`Cc1nn(-c2c(F)cccc2C(N)=O)cc1CN1CCC2(CC1)OCCc1cc(F)sc12.O=C(O)C(O)C(O)C(=O)O` [Example 9, 3-fluoro-2-[4-[(2-fluorospiro[4,5-dihydrothieno[2,3-c]pyran-7,4′-piperidine]-1′-yl)methyl]-3-methyl-pyrazol-1-yl]benzamide (L)-Tartrate]: in series [1], the Glutathione conjugate formation entry was “Yes”.

Regarding `Cc1nn(-c2c(F)cccc2C(N)=O)cc1CN1CCC2(CC1)OCCc1c2sc(F)c1F.O=C(O)C(O)C(O)C(=O)O` [3-fluoro-2-[4-[(2,3-difluorospiro[4,5-dihydrothieno[2,3-c]pyran-7,4′-piperidine]-1′-yl)methyl]-3-methyl-pyrazol-1-yl]benzamide (L) Tartrate, reference compound], the Glutathione conjugate formation entry in series [1] is “Yes”.

A word on the Ki: it is a dissociation constant, usually derived from enzyme kinetics or from competition with a known ligand. Compound `Cc1nn(-c2c(F)cccc2-n2ccnc2C)cc1CN1CCC2(CC1)OCC(F)(F)c1cc(Cl)sc12.O=C(O)C(O)C(O)C(=O)O` [Example 47, 2-Chloro-4,4-difluoro-1′-[[1-[2-fluoro-6-(2-methylimidazol-1-yl)phenyl]-3-methyl-pyrazol-4-yl]methyl]spiro[5H-thieno[2,3-c]pyran-7,4′-piperidine] (L)-Tartrate] gave a Ki in [2] of 0.26 nM. The Kb in series [3] turned out to be 0.15 nM. In series [4], this compound came in with a receptor occupancy at 3 mg/kg of 84%. For the same compound, in series [5], the fasting-induced hyperphagia entry was “substantially block fasting-induced hyperphagia”.

Take `CC(=O)c1cccc(F)c1-n1cc(CN2CCC3(CC2)OCC(F)(F)c2cc(Cl)sc23)c(C)n1` [Example 40, 1-(2-(4-((2′-Chloro-4′,4′-difluoro-4′,5′-dihydrospiro[piperidine-4,7′-thieno[2,3-c]pyran]-1-yl)methyl)-3-methyl-1H-pyrazol-1-yl)-3-fluorophenyl)ethanone]: the Ki in series [2] is 0.25 nM; on Delta Opioid it was more than 479 nM; on Kappa Opioid, more than 430 nM; on Mu Opioid it was more than 451 nM; in [6] it was 1080 nM. Also, the Kb in [3] turned out to be 0.3 nM. The receptor occupancy at 3 mg/kg in [4] was found to be 70%. The “maximum effect, reduction in immobilization time” value in [7] is 50%. This compound returned an ED60 in series [7] (immobility time) of 23 nM. Further, in series [5], the fasting-induced hyperphagia entry is given as “substantially block fasting-induced hyperphagia”.

For `Cc1nn(-c2c(F)cccc2C(N)=O)cc1CN1CCC2(CC1)OCC(F)(F)c1cc(F)sc12.O=C(O)C(O)C(O)C(=O)O` [Example 18, 3-fluoro-2-[3-methyl-4-[(2,4,4-trifluorospiro[5H-thieno[2,3-c]pyran-7,4′-piperidine]-1′-yl)methyl]pyrazol-1-yl]benzamide (L)-Tartrate], the Glutathione conjugate formation entry in series [1] is listed as “No”.
